Experimental data reported in EP4653441A1, “SALT OF ANTIDEPRESSANT COMPOUND, AND PREPARATION METHOD THEREFOR, PHARMACEUTICAL COMPOSITION CONTAINING SAME AND USE THEREOF” (Vigonvita Life Sciences Co., Ltd., priority 2023, dated 2024).
pIC50: −log10 of the molar value. In brackets after ≈: the same amount, converted by molar mass. Where two headings read alike, the source gives them in different places.

Columns and labels:
[1] = Solubility test in water by HPLC (external standard); assay type: physicochemical; settings: 37°C, shaken 30 minutes
Protocol: 1. X-ray Powder Diffraction (XRPD) Test Method: • Instrument: Bruker D8 advance X-ray polycrystalline diffractometer; Target: Cu-Kα (40 kV, 40 mA); Sample-to-detector distance: 30 cm; Scanning type: two-axis linkage; Scanning step width: 0.02°; Scanning range: 3°~40°; Scanning step: 0.1 s. • In general, diffraction angles (2θ values) in XRPD may produce errors within a range of ± 0.2°, and thus numerical values relating to diffraction angles in the present invention should be understood to also encompass numerical values within a range of about ± 0.2°. Therefore, the present invention not only covers the crystal form that completely matches the characteristic signal peak in the specific XRPD pattern, but also covers the crystal form that has an error of about ± 0.2° with the characteristic signal peak in the specific XRPD pattern. 2. Solubility Test Method: About 20 mg of the test sample was taken and placed in a 1.5 ml sample tube, added with 1 ml of water, then placed in a shaker, shaken at 37°C for 30 minutes, the sample tube was taken and centrifuged in a centrifuge for 2 minutes, and the supernatant was taken for HPLC analysis.

[2] = Hygroscopicity measurement; assay type: physicochemical; settings: 25°C, 92.5% RH, 24 hours
Protocol: (§1) 3. Hygroscopicity Measurement Method: The test sample was placed for 24 hours at 25°C and 92.5% RH, and then the weight gain by moisture absorption was measured. 4. Stability Test Method: The test sample was placed in a suitable clean container for 14 days under a high temperature (60°C), or a high humidity (40°C, a relative humidity of 75%) condition, and it was sampled on day 0 and day 14 to detect the purity and impurities of the test sample.

[3] = Stability test of the salts (high temperature / high humidity, 14 days); assay type: physicochemical
Protocol: as §1

[4] = cited from earlier work
[5] = biological target: serotonin reuptake (Homo sapiens, UniProt P31645); settings: read-out: serotonin reuptake inhibition concentration (IC50); cited from earlier work
Chain of serotonin reuptake (P31645 whole entry): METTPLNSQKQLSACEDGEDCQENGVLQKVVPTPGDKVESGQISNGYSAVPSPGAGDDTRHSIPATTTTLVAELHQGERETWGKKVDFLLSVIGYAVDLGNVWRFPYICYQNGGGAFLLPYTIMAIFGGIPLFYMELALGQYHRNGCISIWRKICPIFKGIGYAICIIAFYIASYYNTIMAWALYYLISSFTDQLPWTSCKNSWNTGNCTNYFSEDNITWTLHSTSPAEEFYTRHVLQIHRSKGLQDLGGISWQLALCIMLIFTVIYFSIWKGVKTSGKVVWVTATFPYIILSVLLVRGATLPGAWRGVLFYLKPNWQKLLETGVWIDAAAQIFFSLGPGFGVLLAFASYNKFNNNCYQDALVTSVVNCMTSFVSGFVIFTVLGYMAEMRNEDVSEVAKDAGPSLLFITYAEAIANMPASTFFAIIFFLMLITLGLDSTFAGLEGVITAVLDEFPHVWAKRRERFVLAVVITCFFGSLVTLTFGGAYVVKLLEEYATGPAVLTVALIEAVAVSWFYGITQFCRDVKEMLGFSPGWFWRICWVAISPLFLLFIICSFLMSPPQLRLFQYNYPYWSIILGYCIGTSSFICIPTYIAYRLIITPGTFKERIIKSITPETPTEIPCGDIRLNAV

[6] = biological target: T1, 5-HT3 receptor (Homo sapiens, UniProt P46098); settings: cited from earlier work
T1 sequence (P46098 24-478): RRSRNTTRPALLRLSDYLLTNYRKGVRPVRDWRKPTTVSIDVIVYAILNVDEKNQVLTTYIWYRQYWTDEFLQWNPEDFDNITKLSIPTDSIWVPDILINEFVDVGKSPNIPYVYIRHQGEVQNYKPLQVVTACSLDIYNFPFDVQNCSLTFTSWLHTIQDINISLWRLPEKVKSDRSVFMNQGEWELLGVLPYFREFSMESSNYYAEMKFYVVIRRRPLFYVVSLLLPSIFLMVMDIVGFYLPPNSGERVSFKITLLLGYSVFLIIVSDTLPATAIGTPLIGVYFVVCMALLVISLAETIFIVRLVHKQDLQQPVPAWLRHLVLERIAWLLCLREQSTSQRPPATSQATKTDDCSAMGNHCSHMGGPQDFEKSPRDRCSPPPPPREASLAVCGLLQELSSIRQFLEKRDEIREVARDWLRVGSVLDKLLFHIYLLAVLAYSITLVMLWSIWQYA

[7] = 60°C/14 days (aluminum foil pouch)

SMILES | Solubility [1] | weight gain by moisture absorption [2] | Total Impurity (%) ([3]; 40°C/75% RH/14 days) | Total Impurity (%) ([3]; 60°C/14 days) | Total Impurity (%) [3, 7] | Total Impurity (%) ([3]; Day 0) | further results
CN1CC2CN(c3ccc4ccccc4c3)CC2C1 (single isomer, unassigned) [Example 5, 2-methyl-5-(naphthalen-2-yl)octahydropyrrolo[3,4-c]pyrrole] | 4 mg/mL (≈ 15.9 mM) | 1.21% | – | – | – | – | –
CN1CC2CN(c3ccc4ccccc4c3)CC2C1 (single isomer, unassigned) [Example 2, 2-methyl-5-(naphthalen-2-yl)octahydropyrrolo[3,4-c]pyrrole] | 11 mg/mL (≈ 43.6 mM) | 0.74% | 0.31% | 0.37% | 0.36% | 0.35% | –
CN1CC2CN(c3ccc4ccccc4c3)CC2C1 (single isomer, unassigned) [Example 4, 2-methyl-5-(naphthalen-2-yl)octahydropyrrolo[3,4-c]pyrrole] | 3.5 mg/mL (≈ 13.9 mM) | 6.74% | 0.44% | 0.22% | 0.24% | 0.21% | –
CN1CC2CN(c3ccc4ccccc4c3)CC2C1 (stereo not drawn) [Example 3, 2-methyl-5-(naphthalen-2-yl)octahydropyrrolo[3,4-c]pyrrole] | – | To be liquid | – | – | – | – | –
CN1CC2CN(c3ccc4ccccc4c3)CC2C1 (single isomer, unassigned) [Example 6, 2-methyl-5-(naphthalen-2-yl)octahydropyrrolo[3,4-c]pyrrole] | – | 1.26% | – | – | – | – | –
CN1CC2CN(c3ccc4ccccc4c3)CC2C1 (stereo not drawn) [compound of formula (I), 2-methyl-5-(naphthalen-2-yl)octahydropyrrolo[3,4-c]pyrrole] | – | – | – | – | – | – | Solubility [4]: low; Solubility ([1]; listed as basic compound of formula (I)): Almost Insoluble; Total Impurity (%) ([3]; 40°C/75% RH/14 days, listed as Basic compoun d): 0.41%; Total Impurity (%) ([3]; 60°C/14 days (aluminum foil pouch), listed as Basic compoun d): 0.31%; Total Impurity (%) ([3]; 60°C/14 days, listed as Basic compoun d): 0.23%; Total Impurity (%) ([3]; Day 0, listed as Basic compoun d): 0.15%; pIC50 [5]: > 8.00; affinity for 5-HT3 receptor [6]: high affinity
CN1CC2CN(c3ccc4ccccc4c3)CC2C1 (single isomer, unassigned) [Example 1, 2-methyl-5-(naphthalen-2-yl)octahydropyrrolo[3,4-c]pyrrole] | >100 mg/mL | 1.6% | 0.15% | 0.19% | 0.19% | 0.13% | –
CN1CC2CN(c3ccc4ccccc4c3)CC2C1 (single isomer, unassigned) [Example 7, 2-methyl-5-(naphthalen-2-yl)octahydropyrrolo[3,4-c]pyrrole] | 15 mg/mL (≈ 59.4 mM) | 0.64% | 0.17% | 0.18% | 0.20% | 0.14% | –
